Source: patent publication US9932314B2, “Pyrazole compounds and their use as T-type calcium channel blockers” (IDORSIA PHARMACEUTICALS LTD, priority 2015, dated 2018)

Molecular target: T1, voltage-dependent T-type calcium channel subunit alpha-1G (Cav3.2) (Homo sapiens, UniProt O95180)
T1 construct: expressed in transfected cells; host or cells: HEK293
Experiment: FLIPR calcium flux assay, HEK293 cells recombinantly expressing Cav3.2
Type: cell-based
Conditions: Cav3.2-channel, Fluo-4-AM, 3 min incubation, stimulation with 10 mM CaCl2
Method: In Vitro Methods—Measurement of Calcium Channel Flux by Means of FLIPR Assays.
HEK293 cells recombinantly expressing either voltage-dependent T-type calcium channel subunit […] (Cav3.2) or voltage-dependent L-type calcium channel subunit alpha-1C (Cav1.2) are assayed for calcium flux using the calcium indicator dye Fluo-4-AM (Molecular Devices) and FLIPR technology (Fluorometric Imaging Plate Reader, Molecular Devices) (Xie X, Van Deusen A L, Vitko I, Babu D A, Davies L A, Huynh N, Cheng H, Yang N, Barrett P Q, Perez-Reyes E. Validation of high throughput screening assays against three subtypes of Ca(v)3 T-type channels using molecular and pharmacologic approaches. Assay and Drug Development Technologies 2007, 5(2), 191-203). The HEK293 cells recombinantly expressing Cav3.2 are maintained in DMEM growth medium (Life Technologies) supplemented with 10% Fetal Bovine Serum (FBS), 100 U/ml penicilin (Life Technologies), 100 μg/ml streptomycin (Life Technologies) and 1 mg/ml G418 (Life Technologies). HEK293 cells recombinantly expressing Cav1.2 are maintained in DMEM growth medium (Life technologies) supplemented with 10% FBS, 0.1 mg/ml G418 (Life Technologies), 0.1 mg/ml hygromycin (Life Technologies) and 40 ug/ml zeocin (Life Technologies).
The seeded plates are incubated overnight at 37° C.
The cells are then washed three times with assay buffer (HBSS 1×; 0.375 g/L NaHCO3; 20 mM Hepes; 1% FBS; pH 7.4) and allowed to rest in 50 μl of wash buffer for 30 minutes.
Stock solutions of test compounds are prepared to a concentration of 10 mM in DMSO. For the Cav3.2 assay, serial dilutions of the compounds are prepared in TEAC buffer (100 mM tetraethylammonium chloride; 20 mM Hepes; 2.5 mM CaCl2; 5 mM KCl; 1 mM MgCl2; 1% FBS; pH 7.2), for the Cav1.2 assay serial dilutions are prepared in assay buffer. […] The compounds are incubated with the cells for 3 minutes and Ca2+ entry is stimulated by adding either CaCl2 to a final concentration of 10 mM (Cav3.2 assay) or by adding KCl to a final concentration of 20 mM (Cav1.2 assay). The kinetics of fluorescence increase are recorded for every well and the area under the fluorescence trace for every compound concentration is used to generate inhibition curves using non-linear regression sigmoidal concentration-response curve analysis with in-house software.

T1 sequence (O95180 whole entry): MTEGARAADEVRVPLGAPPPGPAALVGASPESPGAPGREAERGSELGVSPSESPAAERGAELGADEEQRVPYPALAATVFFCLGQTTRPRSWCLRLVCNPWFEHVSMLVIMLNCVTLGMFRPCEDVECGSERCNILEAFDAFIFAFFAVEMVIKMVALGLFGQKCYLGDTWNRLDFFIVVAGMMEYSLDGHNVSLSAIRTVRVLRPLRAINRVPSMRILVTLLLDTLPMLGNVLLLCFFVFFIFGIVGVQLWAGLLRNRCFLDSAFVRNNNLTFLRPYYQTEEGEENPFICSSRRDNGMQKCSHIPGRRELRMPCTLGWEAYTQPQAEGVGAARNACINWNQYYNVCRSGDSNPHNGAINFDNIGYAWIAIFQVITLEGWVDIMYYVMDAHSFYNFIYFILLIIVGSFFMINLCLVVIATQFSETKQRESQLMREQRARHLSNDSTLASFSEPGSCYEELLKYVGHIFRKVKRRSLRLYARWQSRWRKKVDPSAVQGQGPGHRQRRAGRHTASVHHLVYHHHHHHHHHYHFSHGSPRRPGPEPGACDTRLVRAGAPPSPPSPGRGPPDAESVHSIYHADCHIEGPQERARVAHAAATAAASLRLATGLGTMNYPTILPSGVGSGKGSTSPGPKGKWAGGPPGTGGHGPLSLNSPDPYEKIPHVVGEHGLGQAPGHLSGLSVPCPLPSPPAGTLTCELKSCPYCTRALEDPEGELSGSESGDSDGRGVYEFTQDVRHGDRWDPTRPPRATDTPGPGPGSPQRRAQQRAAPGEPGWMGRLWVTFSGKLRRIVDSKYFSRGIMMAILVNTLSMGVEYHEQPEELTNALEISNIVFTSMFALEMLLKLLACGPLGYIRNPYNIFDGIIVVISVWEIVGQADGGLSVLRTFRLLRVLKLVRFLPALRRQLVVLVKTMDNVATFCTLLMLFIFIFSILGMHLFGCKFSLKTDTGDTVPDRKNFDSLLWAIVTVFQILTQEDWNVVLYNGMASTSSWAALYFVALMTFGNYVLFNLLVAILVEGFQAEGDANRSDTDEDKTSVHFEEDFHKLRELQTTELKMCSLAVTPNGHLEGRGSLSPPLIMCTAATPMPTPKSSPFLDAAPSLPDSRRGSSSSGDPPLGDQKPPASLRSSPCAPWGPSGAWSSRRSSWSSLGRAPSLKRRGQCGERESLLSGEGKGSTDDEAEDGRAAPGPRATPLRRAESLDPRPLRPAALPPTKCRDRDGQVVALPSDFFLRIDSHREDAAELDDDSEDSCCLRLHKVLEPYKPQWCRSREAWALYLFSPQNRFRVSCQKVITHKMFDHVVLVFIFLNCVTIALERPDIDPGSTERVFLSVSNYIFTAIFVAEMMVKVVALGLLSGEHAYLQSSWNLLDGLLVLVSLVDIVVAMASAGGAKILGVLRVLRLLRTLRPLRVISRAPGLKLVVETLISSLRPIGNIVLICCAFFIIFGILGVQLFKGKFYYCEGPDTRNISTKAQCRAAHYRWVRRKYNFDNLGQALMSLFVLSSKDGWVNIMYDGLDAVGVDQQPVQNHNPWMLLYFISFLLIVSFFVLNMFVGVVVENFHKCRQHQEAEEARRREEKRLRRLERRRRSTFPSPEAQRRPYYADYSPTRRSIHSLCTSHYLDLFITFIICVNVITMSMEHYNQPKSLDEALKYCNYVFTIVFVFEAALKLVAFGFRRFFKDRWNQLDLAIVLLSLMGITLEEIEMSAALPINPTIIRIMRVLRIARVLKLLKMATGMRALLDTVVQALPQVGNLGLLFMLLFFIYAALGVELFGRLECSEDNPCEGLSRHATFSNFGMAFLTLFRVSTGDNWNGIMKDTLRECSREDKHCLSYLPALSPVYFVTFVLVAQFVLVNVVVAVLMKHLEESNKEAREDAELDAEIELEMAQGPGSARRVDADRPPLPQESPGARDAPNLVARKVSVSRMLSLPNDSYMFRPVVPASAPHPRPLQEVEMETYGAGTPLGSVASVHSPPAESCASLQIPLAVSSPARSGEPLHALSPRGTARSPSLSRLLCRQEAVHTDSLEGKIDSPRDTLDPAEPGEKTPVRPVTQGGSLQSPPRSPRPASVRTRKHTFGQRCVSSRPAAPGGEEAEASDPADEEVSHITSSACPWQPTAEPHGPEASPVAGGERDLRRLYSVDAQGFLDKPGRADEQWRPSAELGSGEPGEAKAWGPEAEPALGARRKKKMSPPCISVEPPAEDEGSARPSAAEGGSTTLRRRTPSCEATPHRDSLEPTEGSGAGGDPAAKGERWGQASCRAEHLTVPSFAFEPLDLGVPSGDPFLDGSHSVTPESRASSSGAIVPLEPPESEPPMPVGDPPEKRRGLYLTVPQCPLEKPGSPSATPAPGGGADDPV

IC50 | Structure (SMILES)
27 nM | COCCN(C)c1ccc(CC(=O)Nc2ccn(Cc3ccc(C#N)cc3)n2)cc1 [Example 127, N-[1-(4-Cyano-benzyl)-1H-pyrazol-3-yl]-2-{4-[(2-methoxy-ethyl)-methyl-amino]-phenyl}-acetamide]
31 nM | Cc1ccc(Cn2ccc(NC(=O)Cc3ccc(C(C)C)cc3)n2)nc1 [Example 97, 2-(4-Isopropyl-phenyl)-N-[1-(5-methyl-pyridin-2-ylmethyl)-1H-pyrazol-3-yl]-acetamide]
506 nM | N#Cc1cnc(Cn2ccc(NC(=O)Cc3ccc(C4(C(F)(F)F)CC4)cc3)n2)c(F)c1 [Example 389, N-[1-(5-Cyano-3-fluoro-pyridin-2-ylmethyl)-1H-pyrazol-3-yl]-2-[4-(1-trifluoromethyl-cyclopropyl)-phenyl]-acetamide]
15 nM | N#Cc1ccc(Cn2ccc(NC(=O)Cc3ccc(OCC(F)(F)F)c(C4CC4)c3)n2)nc1 [Example 406, N-[1-(5-Cyano-pyridin-2-ylmethyl)-1H-pyrazol-3-yl]-2-[3-cyclopropyl-4-(2,2,2-trifluoro-ethoxy)-phenyl]-acetamide]
100 nM | N#Cc1ccc(Cn2ccc(NC(=O)Cc3ccc(OC4COC4)cc3)n2)cc1F [Example 254, N-[1-(4-Cyano-3-fluoro-benzyl)-1H-pyrazol-3-yl]-2-[4-(oxetan-3-yloxy)-phenyl]-acetamide]
80 nM | N#Cc1ccc(Cn2ccc(NC(=O)Cc3ccc(OC4CC4)cc3)n2)cc1 [Example 64, N-[1-(4-Cyano-benzyl)-1H-pyrazol-3-yl]-2-(4-cyclopropoxy-phenyl)-acetamide]
37 nM | N#Cc1ccc(Cn2ccc(NC(=O)Cc3ccc(OCC4CC(F)(F)C4)cc3)n2)cc1 [Example 299, N-[1-(4-Cyano-benzyl)-1H-pyrazol-3-yl]-2-[4-(3,3-difluoro-cyclobutylmethoxy)-phenyl]-acetamide]
578 nM | CCn1ncc2cc(CC(=O)Nc3ccn(Cc4ccc(C)c(C#N)n4)n3)ccc21 [Example 370, N-[1-(6-Cyano-5-methyl-pyridin-2-ylmethyl)-1H-pyrazol-3-yl]-2-(1-ethyl-1H-indazol-5-yl)-acetamide]
25 nM | CN(C)c1ccc(CC(=O)Nc2ccn(Cc3ccc(C(C)(C)C)cc3)n2)cc1 [Example 18, N-[1-(4-tert-Butyl-benzyl)-1H-pyrazol-3-yl]-2-(4-dimethylamino-phenyl)-acetamide]
128 nM | COC1(c2ccc(CC(=O)Nc3ccn(Cc4ccc(C#N)cn4)n3)cc2)CC1 [Example 384, N-[1-(5-Cyano-pyridin-2-ylmethyl)-1H-pyrazol-3-yl]-2-[4-(1-methoxy-cyclopropyl)-phenyl]-acetamide]
8.5 nM | N#Cc1nc(Cn2ccc(NC(=O)Cc3ccc(OCC(F)(F)F)c(C4CC4)c3)n2)ccc1F [Example 408, N-[1-(6-Cyano-5-fluoro-pyridin-2-ylmethyl)-1H-pyrazol-3-yl]-2-[3-cyclopropyl-4-(2,2,2-trifluoro-ethoxy)-phenyl]-acetamide]
126 nM | CC(C)c1ccc(CC(=O)Nc2ccn(Cc3cc(C#N)c(F)cn3)n2)cc1 [Example 401, N-[1-(4-Cyano-5-fluoro-pyridin-2-ylmethyl)-1H-pyrazol-3-yl]-2-(4-isopropyl-phenyl)-acetamide]
856 nM | Cc1cn(C)c2ncc(CC(=O)Nc3ccn(Cc4ccc(C#N)cn4)n3)cc12 [Example 322, N-[1-(5-Cyano-pyridin-2-ylmethyl)-1H-pyrazol-3-yl]-2-(1,3-dimethyl-1H-pyrrolo[2,3-b]pyridin-5-yl)-acetamide]
79 nM | O=C(Cc1ccc(N2CCCC2=O)cc1)Nc1ccn(Cc2ccc(F)cc2)n1 [Example 204, N-[1-(4-Fluoro-benzyl)-1H-pyrazol-3-yl]-2-[4-(2-oxo-pyrrolidin-1-yl)-phenyl]-acetamide]
41 nM | Cc1cc(CC(=O)Nc2ccn(Cc3cc(C#N)c(F)cn3)n2)ccc1OCCC(F)(F)F [Example 421, N-[1-(4-Cyano-5-fluoro-pyridin-2-ylmethyl)-1H-pyrazol-3-yl]-2-[3-methyl-4-(3,3,3-trifluoro-propoxy)-phenyl]-acetamide]
6.6 nM | Cn1ccc2ccc(CC(=O)Nc3ccn(Cc4ccc(C#N)c(F)c4)n3)cc21 [Example 293, N-[1-(4-Cyano-3-fluoro-benzyl)-1H-pyrazol-3-yl]-2-(1-methyl-1H-indol-6-yl)-acetamide]
51 nM | N#Cc1cc(Cn2ccc(NC(=O)Cc3ccc(C4(F)COC4)cc3)n2)ccc1F [Example 270, N-[1-(3-Cyano-4-fluoro-benzyl)-1H-pyrazol-3-yl]-2-[4-(3-fluoro-oxetan-3-yl)-phenyl]-acetamide]
185 nM | N#Cc1ccc(Cn2ccc(NC(=O)Cc3ccc(N4CC(F)(F)C4)nc3)n2)nc1 [Example 142, N-[1-(5-Cyano-pyridin-2-ylmethyl)-1H-pyrazol-3-yl]-2-[6-(3,3-difluoro-azetidin-1-yl)-pyridin-3-yl]-acetamide]
29 nM | O=C(Cc1ccc(N2CC(F)C2)nc1)Nc1ccn(Cc2ccc(F)c(F)c2)n1 [Example 160, N-[1-(3,4-Difluoro-benzyl)-1H-pyrazol-3-yl]-2-[6-(3-fluoro-azetidin-1-yl)-pyridin-3-yl]-acetamide]
16 nM | CN(C)c1ccc(CC(=O)Nc2ccn(Cc3ccc(F)c(Cl)c3)n2)cn1 [Example 40, N-[1-(3-Chloro-4-fluoro-benzyl)-1H-pyrazol-3-yl]-2-(6-dimethylamino-pyridin-3-yl)-acetamide]
79 nM | O=C(Cc1ccc2[nH]c(=O)oc2c1)Nc1ccn(Cc2ccc(F)c(F)c2)n1 [Example 218, N-[1-(3,4-Difluoro-benzyl)-1H-pyrazol-3-yl]-2-(2-oxo-2,3-dihydro-benzooxazol-6-yl)-acetamide]
91 nM | CN(C)c1ccc(CC(=O)Nc2ccn(Cc3ccc(Cl)c(OC(F)(F)F)c3)n2)cc1 [Example 34, N-[1-(4-Chloro-3-trifluoromethoxy-benzyl)-1H-pyrazol-3-yl]-2-(4-dimethylamino-phenyl)-acetamide]
176 nM | N#Cc1ccc(Cn2ccc(NC(=O)Cc3ccc(N4CC[C@@H](F)C4)nc3)n2)cc1 [Example 140, N-[1-(4-Cyano-benzyl)-1H-pyrazol-3-yl]-2-[6-((R)-3-fluoro-pyrrolidin-1-yl)-pyridin-3-yl]-acetamide]
159 nM | Cn1ncc2ccc(CC(=O)Nc3ccn(Cc4cc(F)c(C#N)c(F)c4)n3)cc21 [Example 346, N-[1-(4-Cyano-3,5-difluoro-benzyl)-1H-pyrazol-3-yl]-2-(1-methyl-1H-indazol-6-yl)-acetamide]
308 nM | Cn1ncc2ccc(CC(=O)Nc3ccn(Cc4ccc(C#N)cc4)n3)cc21 [Example 295, N-[1-(4-Cyano-benzyl)-1H-pyrazol-3-yl]-2-(1-methyl-1H-indazol-6-yl)-acetamide]
61 nM | N#Cc1ccc(Cn2ccc(NC(=O)Cc3ccc(C(F)(F)F)cc3)n2)nc1 [Example 338, N-[1-(5-Cyano-pyridin-2-ylmethyl)-1H-pyrazol-3-yl]-2-(4-trifluoromethyl-phenyl)-acetamide]
9.2 nM | O=C(Cc1ccc(N2CC(F)(F)C2)cc1)Nc1ccn(Cc2ccc(F)cc2)n1 [Example 49, 2-[4-(3,3-Difluoro-azetidin-1-yl)-phenyl]-N-[1-(4-fluoro-benzyl)-H-pyrazol-3-yl]-acetamide]

Structure (SMILES) | IC50
O=C(Cc1ccc(OC2CCC2)cc1)Nc1ccn(Cc2ccc(F)cc2)n1 [Example 198, 2-(4-Cyclobutoxy-phenyl)-N-[1-(4-fluoro-benzyl)-1H-pyrazol-3-yl]-acetamide] | 16 nM
